The subject of one assay is MMP1. Briefly: MMP1 concentration, fluoxetine derivatives on SAEC (FIG. 6). Type of assay: cell-based, human. From the text: FIG. 6: MMP1 activity—fluoexetine derivatives on SAEC. Comparison of Derivatives 1-6 on MMP1 concentration.
The subject of a further assay is MMP-1. Briefly: MMP-1 expression and secretion in CSE exposed small airway epithelial cell (SAEC) cultures. Format: cell-based, human. The note with it: for MMP1 expression / MMP1 induction: SAEC, 5% CSE, varying doses (dose response). How it is done:
FIG. 2: Fluoxetine inhibits MMP-1 production and TLR-4 signaling in CSE exposed SAEC cultures.
(A) Fluoxetine. (B) Derivative 2. (C) Derviative 5. SAEC cultures were treated with 5% CSE and varying doses of Fluoxetine, Derivative 2 and Derivative 5, respectively. Treatment with the derivatives decreased MMP1 induction after cigarette smoke treatment.
The compounds in this clinical set have all been tested and utilized in humans for various indications. These molecules were tested for their capacity to modulate MMP-1 smoke induced transcriptional activation. […] Prior work in our lab was critical in establishing MMP-1 as a destructive agent in the progression of COPD in humans. As such, we next exposed human small airway epithelial cells to cigarette smoke extract followed by treatment with fluoxetine.
Aim 1b: Determining if potential CL(s) maintain their ability to inactivate MMP1 transcription and inflammatory pathways via inhibition of TLR4 signaling in human small airway epithelial cells. For each positive hit and fluoxetine, the DRC is used to derive their respective IC50's and Hill slopes. The concentration required to achieve a 50%, 75% and 99.9% fractional effect is calculated using the formula: [Cf]=[(fraction/100-fraction) ^(1/Hill slope)]IC50. The effect of each calculated concentration on cell viability is tested in triplicate on primary human small airway epithelial cell (hSAEC) culture via MTT assay. […] The chosen concentrations are tested on SAEC cultures exposed to 5% cigarette smoke extract for 24 h to assess their effects on MMP1 and TLR4 expression via mRNA extraction to analyze transcript levels by real-time RT-PCR. Culture media is collected and MMP1 secretion assessed by ELISA (R&D Systems, MN). Protein collected for western blot is used to assess IRAK phosphorylation, a known downstream effector of TLR4 activity. In addition, PCR arrays (ThermoFisher, MA) that measure the expression of cytokines that have been implicated in the pathogenesis of COPD, their receptors and the expression of transcription factors that regulate the cellular response to oxidants and CSE exposure are used to determine the ability of each derivative to suppress inflammatory signaling in smoke exposed cells.
SAEC cultures were treated with 5% CSE and varying doses of Fluoxetine, Derivative 2 and Derivative 5, respectively. Treatment with the derivatives decreased MMP1 induction after cigarette smoke treatment.

The test system of a further assay is IL-8. Briefly: IL-8 expression in CSE treated SAEC, dose response. Format: cell-based, human. Conditions: 5% CSE, varying doses.
Another assay concerns MMP1 promoter. Briefly: MMP1 promoter luciferase reporter screen in CSE-treated transfected HEK 293T cells. Format: cell-based, human. Conditions: NIH clinical collection screen. As for the experimental part:
(§1) These molecules were tested for their capacity to modulate MMP-1 smoke induced transcriptional activation. […] As such, we next exposed human small airway epithelial cells to cigarette smoke extract followed by treatment with fluoxetine.
On the technique in general: A reporter such as luciferase makes a cellular process visible.

In another assay the test system is smoke exposed rabbits. Conditions: cigarette smoke 16 weeks, oral; for mean linear intercept (morphometric analysis): versus smoke alone. From the text:
(C) Representative H&E stains for each treatment group.
As the next step, we observed the ability of oral duloxetine to inhibit cigarette smoke induced up-regulation of MMP1 and lung destruction in a rabbit model. Rabbits were utilized for these experiments since unlike mice they produce MMP-1. Rabbits were exposed to cigarette smoke for 16 weeks while receiving placebo or orally administered duloxetine.
To assess the effects of SSRIs on the cigarette smoke induced inflammatory response, we utilized smoke-exposed mice.

The subject of another assay is TLR-4. Put plainly: TLR-4 signaling (TLR-4 expression, phospho-IRAK) in CSE exposed SAEC cultures. Format: cell-based, human. How it is done: as §1
For each positive hit and fluoxetine, the DRC is used to derive their respective IC50's and Hill slopes. The concentration required to achieve a 50%, 75% and 99.9% fractional effect is calculated using the formula: [Cf]=[(fraction/100-fraction) ^(1/Hill slope)]IC50. The effect of each calculated concentration on cell viability is tested in triplicate on primary human small airway epithelial cell (hSAEC) culture via MTT assay. […] The chosen concentrations are tested on SAEC cultures exposed to 5% cigarette smoke extract for 24 h to assess their effects on MMP1 and TLR4 expression via mRNA extraction to analyze transcript levels by real-time RT-PCR. Culture media is collected and MMP1 secretion assessed by ELISA (R&D Systems, MN). Protein collected for western blot is used to assess IRAK phosphorylation, a known downstream effector of TLR4 activity.

A further assay deals with smoke exposed mice. Briefly: Cigarette smoke exposed mice, inflammatory BALF cell counts. Format: in vivo, mouse. Conditions: cigarette smoke 10 days, oral. From the text: FIG. 4: Oral fluoxetine treatment in smoke exposed mice reduces inflammatory BALF cell counts. […] (B) Representative cytospin DifQuik stains for each experimental group.

Entries after “also recorded” stand apart in the source; their conditions may differ. Read-outs that look alike come from different tables or passages of the source.

For `CCNC(=S)N(C)CCC(Oc1ccc(C(F)(F)F)cc1)c1ccccc1` (stereo not shown) [Derivative 3, 3-ethyl-1-methyl-1-(3-phenyl-3-(4-(trifluoromethyl)phenoxy)propyl)thiourea], the MMP1 concentration result in the assay with MMP1 (2 μM) is given as “did not show any reduction of MMP1”; with MMP1 (5 μM), “did not show any reduction of MMP1”; in the assay on MMP1 (10 μM) it was “significant reduction of MMP1”.

Take `Cc1ccc(S(=O)(=O)N(C)CCC(Oc2ccc(C(F)(F)F)cc2)c2ccccc2)cc1` (stereo not shown) [Derivative 5, N,4-dimethyl-N-(3-phenyl-3-(4-(trifluoromethyl)phenoxy)propyl)benzenesulfonamide]: the “MMP1 expression / MMP1 induction” value in the assay on MMP-1 is “reduces MMP1 expression”. Also, in the assay with IL-8, the IL-8 expression result was “reduces IL-8 expression”. Besides, the MMP1 concentration result in the assay with MMP1 (5 μM) and in the assay with MMP1 (10 μM) was “significantly decreasd MMP1 concentrations” throughout.

With `CNCC[C@H](Oc1cccc2ccccc12)c1cccs1` [Duloxetine], the “inhibition of cigarette smoke induced MMP-1 production (MMP-1 smoke induced transcriptional activation)” value in the assay with MMP1 promoter is “potent inhibitors”. In the assay on smoke exposed rabbits, the “MMP1 in bronchoalveolar lavage fluid (ELISA)” value was “decreases MMP1 present in the BALF” and the “mean linear intercept (morphometric analysis)” value is “significantly reduced mean linear intercept”. In the assay on smoke exposed rabbits (listed as duloxetine), the “MMP1 in bronchoalveolar lavage fluid (ELISA)” value was “reduced MMP1 levels” and the “mean linear intercept (morphometric analysis)” value is recorded as “decreased mean linear intercepts”.

`CCC(=O)N(C)CCC(Oc1ccc(C(F)(F)F)cc1)c1ccccc1` (stereo not shown) [Derivative 4, N-methyl-N-(3-phenyl-3-(4-(trifluoromethyl)phenoxy)propyl)propionamide]: the MMP1 concentration entry with MMP1 (2 μM), with MMP1 (5 μM) and in the assay with MMP1 (10 μM) was “did not show any reduction of MMP1” in each case.

With `CN(CCC(Oc1ccc(C(F)(F)F)cc1)c1ccccc1)S(C)(=O)=O` (stereo not shown) [Derivative 6, N-methyl-N-(3-phenyl-3-(4-(trifluoromethyl)phenoxy)propyl)methanesulfonamide], the MMP1 concentration result in the assay on MMP1 (5 μM) and with MMP1 (10 μM) was “significantly decreasd MMP1 concentrations” in each case.

On to `CCCCN(C)CCC(Oc1ccc(C(F)(F)F)cc1)c1ccccc1` (stereo not shown) [Derivative 1, N-methyl-N-(3-phenyl-3-(4-(trifluoromethyl)phenoxy)propyl)butan-1-amine], for which the MMP1 concentration result with MMP1 (5 μM) and in the assay on MMP1 (10 μM) was “significantly decreasd MMP1 concentrations” each time.

As for `CNCCC(Oc1ccc(C(F)(F)F)cc1)c1ccccc1` (stereo not shown) [Fluoxetine], the “inhibition of cigarette smoke induced MMP-1 production (MMP-1 smoke induced transcriptional activation)” value in the assay with MMP1 promoter is listed as “potent inhibitors”. Further, in the assay on MMP-1 (5% CSE exposed SAEC cultures), the “MMP1 present in the media (secretion)” value was “decreased MMP-1 expression and secretion; also recorded: decreases MMP1 present in the media”; the “expression of MMP1 transcript (PCR)” value was “decreased MMP-1 expression”. Besides, in the assay with MMP-1 (5% CSE exposed SAEC cultures, listed as fluoxetine), the “expression of MMP1 transcript (PCR)” value is reported as “inhibits expression of MMP1 transcript”. For the same compound, in the assay with TLR-4, the TLR-4 expression result is recorded as “decreased expression; also recorded: abrogates the CSE induced increase in TLR-4 expression” and the “phospho-IRAK (downstream effector of TLR-4)” value is recorded as “decreased expression; also recorded: abrogates”. Moreover, in the assay with smoke exposed mice, the “inflammatory cell counts in lung lavage fluid (BALF)” value is “decreases the cell count”. In addition, in the assay on smoke exposed mice (listed as fluoxetine), the “inflammatory cell counts in lung lavage fluid (BALF)” value is “decreased inflammatory cell counts”.

As for `CCNC(=O)N(C)CCC(Oc1ccc(C(F)(F)F)cc1)c1ccccc1` (stereo not shown) [Derivative 2, 3-ethyl-1-methyl-1-(3-phenyl-3-(4-(trifluoromethyl)phenoxy)propyl)urea], in the assay on MMP-1, the “MMP1 expression / MMP1 induction” value is “reduces MMP1 expression”. In addition, the IL-8 expression entry in the assay with IL-8 is given as “reduces IL-8 expression”. The MMP1 concentration entry in the assay on MMP1 (5 μM) and in the assay on MMP1 (10 μM) was “significantly decreasd MMP1 concentrations” in each case.

The values above are taken from patent publication US20240254077A1, “METHODS OF TREATING CHRONIC OBSTRUCTIVE PULMONARY DISEASE INCLUDING COMPOUNDS USEFUL THEREIN” (The Trustees of Columbia University in the City of New York, priority 2021, published 2024).
